Measurements reported in patent publication EP1078629A2 (GLAXO GROUP LIMITED, priority 1989, dated 1991).

Assays:
histamine-induced PPE = test: Histamine-induced plasma protein extravasation in the lung; assay type: in vivo, guinea-pigs
Description: Briefly, guinea-pigs (male Dunkin Hartley, 300-400g) were given an intracardiac injection of iodinated human serum albumin (0.5µCi) in heparinised saline (10U.ml^-1).

[1] = test system: Zymosan-induced Granylocyte-dependent PPE; test: Zymosan-induced granulocyte-dependent plasma protein extravasation in skin; assay type: in vivo, guinea-pig; design: Zymosan-induced Granylocyte-dependent PPE: unit not given here
Experimental: (§1) The effect of β2-adrenoreceptor agonists on granulocyte-dependent and independent vascular permeability induced in guinea-pig skin, by intradermal challenge with zymosan and histamine respectively, was evaluated using a modification of the method of Issekutz Lab. Invest .,45 , 435-441(1981).
(§2) Plasma protein extravasation (PPE) was calculated as µl plasma equivalents.

[2] = test system: Histamine-induced Granulocyte Independent PPE; test: Histamine-induced granulocyte-independent plasma protein extravasation in skin; assay type: in vivo, guinea-pig
Experimental: as §1, §2

[3] = test system: zymosan-induced PMN cell accumulation in guinea-pig skin; test: Zymosan-induced PMN cell accumulation in skin; details: for % Inhibition of PMN cell accumulation: together with zymosan 0.2mg.site^-1
[4] = test system: LPS-induced neutrophil accumulation; test: LPS-induced neutrophil accumulation in bronchoalveolar lavage fluid; assay type: in vivo, guinea-pigs; details: 0.1 mg.ml^-1 aerosol 30 min prior to LPS 100µg.ml^-1; 4 hours after challenge (LPS alone 141.3 ± 33.3, baseline 3.8 ± 1.2)
Experimental: (§3) Briefly, guinea-pigs (male Dunkin Hartley, 300-400g) were exposed to an aerosol of 100µg.ml^-1 E. coli lipopolysaccharide (LPS;026:B6, Sigma Ltd) or 100µg.ml^-1 platelet activating factor (PAF; Sigma Ltd.) for 10 min. […] The total leukocyte count of the bronchoalveolar lavage fluid (BALF) recovered was determined. A cytospin preparation was prepared from the BALF, fixed with methanol, stained with Wright's stain and a differential leukocyte count was carried out.

[5] = test system: PAF-induced eosinophil infiltration; test: PAF-induced eosinophil infiltration in bronchoalveolar lavage fluid; assay type: in vivo, guinea-pigs; details: inhalation 0.1mg.ml^-1 30 min prior to PAF 100µg.ml^-1; 24 hours after challenge (PAF alone 97.7 ± 18.8, baseline 53.3 ± 12.5)
Experimental: as §3

[6] = Cavia porcellus, PMN, po, read-out: % Inhibition of PMN cell accumulation

In the case of `CC(C)(C)NCC(O)c1ccc(O)c(CO)c1` (stereo not drawn) [salbutamol, reference compound], the ED50 (histamine-induced PPE; Cavia porcellus, po, 0.5 h, p.o., 30 min prior to histamine, read-out: ED50, inhibition of histamine-induced PPE) is reported as 0.02 mg/kg, the “time after which there is substantial loss of activity against histamine induced PPE” value (histamine-induced PPE; equi-effective doses) is reported as 2 h and the “inhibitory effect on zymosan-induced PPE” value ([1]; 10-100mg.kg^-1 p.o.) is reported as “no inhibitory effect”. The “dose required for a comparable effect on granulocyte-independent PPE, relative to salmeterol” value ([2]; compared with salmeterol 10mg.kg^-1 p.o.) was “Approximately 10 fold” and the “inhibitory effect on PMN cell accumulation” value ([3]; 10-100mg.kg^-1 p.o.) was “no significant inhibitory effect”.
For `OCc1cc(C(O)CNCCCCCCOCCCCc2ccccc2)ccc1O` (stereo not drawn) [salmeterol, 4-hydroxy-α^1-[[[6-(4-phenylbutoxy)hexyl]amino]methyl]-1,3-benzenedimethanol], the BALF neutrophil count [4] was 46.8 ± 9.1 x10^3 cells.ml^-1, the BALF eosinophil count [5] was 59.2 ± 19.8 x10^3 cells.ml^-1 and the “inhibition of histamine-induced PPE at the highest doses” value (histamine-induced PPE; aerosol, nebuliser concentration 0.001-1mg.ml^-1) was “complete inhibition”. For the same compound, the “Zymosan-induced Granylocyte-dependent PPE” value ([1]; Intradermal 10^-8 (nmol.site^-1), co-administered with zymosan) was 51.7, the “Zymosan-induced Granylocyte-dependent PPE” value ([1]; Intradermal 10^-9 (nmol.site^-1), co-administered with zymosan) was 1.8 and the “Zymosan-induced Granylocyte-dependent PPE” value ([1]; Oral 1.0 mg.kg^-1, 1 hour before zymosan 0.2mg.site^-1) was 47.0. The “Zymosan-induced Granylocyte-dependent PPE” value ([1]; Oral 10.0 mg.kg^-1, 1 hour before zymosan 0.2mg.site^-1) was 56.0, the “Histamine-induced Granulocyte Independent PPE” value ([2]; Oral 1.0 mg.kg^-1, 1 hour before histamine 100ng.site^-1) was 9.2 and the “Histamine-induced Granulocyte Independent PPE” value ([2]; Oral 10.0 mg.kg^-1, 1 hour before histamine 100ng.site^-1) was 58.5. The inhibition at 1 mg/kg [3, 6] was 27%, the inhibition at 10 mg/kg [3, 6] was 59% and the “% Inhibition of PMN cell accumulation” value ([3]; Intradermal 10^-8 (nmol.site^-1)) was 51%. The “% Inhibition of PMN cell accumulation” value ([3]; Intradermal 10^-9 (nmol.site^-1)) was 16%.
